Among the data in ChEMBL document CHEMBL3352691, “Meroterpenoids from the alga-derived fungi Penicillium thomii Maire and Penicillium lividum Westling” (J Nat Prod, 2014) are IC50, inhibition and Activity values, retold here.

For one data set, the system named is MDA-MB-231. Put plainly: Cytotoxicity against human MDA-MB-231 cells after 2 hrs by MTS assay. The settings on record: MDA-MB-231, 2 h. Format: functional, cell-based. (In general: Formazan colour is commonly taken as a measure of viable cells.)
Data set [1] can be described thus: Cytotoxicity against mouse JB6 Cl41 cells after 2 hrs by MTS assay. In kind it is cell-based. To be noted: JB6 Cl41, 2 h.
The subject of another data set is JB6 Cl41. Put plainly: Inhibition of AP-1 basal transcriptional activity in mouse JB6 Cl41 cells at non cytotoxic concentration after 12 hrs by luciferase reporter gene assay. Format: functional, cell-based. (In general: Reporter assays use an easily measured gene product as a stand-in for the process of interest.)
A short description of data set [2]: Inhibition of AP-1 basal transcriptional activity in mouse JB6 Cl41 cells at 6.25 uM after 12 hrs by luciferase reporter gene assay. Format: functional. The settings on record: JB6 Cl41, 12 h.
A short description of data set [3]: Cytotoxicity against mouse JB6 Cl41 cells assessed as reduction in cell viability up to 100 uM after 2 hrs by MTS assay. Format: cell-based. To be noted: jb6 cl41, 2 h.
Data set [4] can be described thus: Inhibition of endo-1,3-beta-D-glucanase in Pseudocardium sachalinensis preincubated for 15 mins by Nelson method.

Where a name gives a salt, the structure may show the parent alone. Activity calls are given as the source filed them. No cut-off for these calls is given here.

On to `COc1c2c(c(C)c3c1C(=O)OC3)O[C@@]1(C)C[C@@H](O)[C@H]3C(C)(C)OC(=O)CC[C@]3(C)[C@H]1C2`, for which the half-inhibitory concentration (IC50) in the data set with MDA-MB-231 was less than 10 µM; in data set [1], less than 10 µM; in data set [4], 2 µM. For the same compound, in the data set with JB6 Cl41, the inhibition entry was “Active”. Also, in data set [2], the inhibition at 6.25 µM stood at 27.6%. For the same compound, the Activity entry in data set [3] is given as “Non-toxic”.
In data set [4], `CC(CC[C@@H](C)[C@H]1CC[C@H]2[C@@H]3C[C@H](OS(=O)(=O)O)[C@H]4C[C@H](OS(=O)(=O)O)[C@@H](OS(=O)(=O)O)C[C@]4(C)[C@H]3CC[C@]12C)C(C)(C)C` (some centres not stated) [HALISTANOL SULFATE] came in with a half-inhibitory concentration (IC50) of 130 µM.
Still for that read-out and setting: under `C=C(C)[C@@H]1[C@H](O)C[C@]2(C)Oc3c(C)c4c(c(OC)c3C[C@@H]2[C@]1(C)CCC(=O)O)C(=O)OC4` stands 0.12 µM.
With `C=C(C)[C@@H]1CC[C@]2(C)Oc3c(C)c4c(c(OC)c3C[C@@H]2[C@]1(C)CCC(=O)O)C(=O)OC4`, the IC50 is less than 10 µM in the data set on MDA-MB-231, less than 10 µM in data set [1] and 1000 µM in data set [4].
As to `CCCCOC(=O)CC[C@@]1(C)[C@H]2Cc3c(c(C)c4c(c3OC)C(=O)OC4)O[C@@]2(C)C[C@@H](O)[C@H]1C(C)(C)O`, the half-maximal inhibitory concentration (IC50) with MDA-MB-231 is less than 10 µM; in data set [1] it was less than 10 µM; in data set [4], 0.2 µM. Also, in the data set with JB6 Cl41, the inhibition entry is “Active”. In data set [2], this compound came in with an inhibition at 6.25 µM of 36.1%. In addition, the Activity entry in data set [3] was “Non-toxic”.
`COc1c2c(c(C)c3c1C(=O)OC3)O[C@@]1(C)CC[C@@H](C(C)(C)O)[C@@](C)(CCC(=O)O)[C@H]1C2`: the half-inhibitory concentration (IC50) in data set [4] is 0.01 µM. In other words, the double-digit nanomolar range.
As to `CCCCOC(=O)CC[C@@]1(C)[C@H]2Cc3c(c(C)c4c(c3OC)C(=O)OC4)O[C@@]2(C)CC[C@H]1C(C)(C)O`, the inhibition at 6.25 µM in data set [2] was 34%. Moreover, in data set [3], the Activity entry was “Non-toxic”. Also, half-maximal inhibition in data set [4] (IC50) was put at 0.1 µM.
`COc1c2c(c(C)c3c1C(=O)OC3)O[C@@]1(C)C[C@@H](O)[C@@H](C(C)(C)O)[C@@](C)(CCC(=O)O)[C@H]1C2`: the IC50 in the data set with MDA-MB-231 was less than 10 µM; in data set [1] it was less than 10 µM; in data set [4], 1 µM. In the data set on JB6 Cl41, the inhibition result is “Active”.
`COc1c2c(c(C)c3c1C(=O)OC3)O[C@@]1(C)CC[C@H]3C(C)(C)OC(=O)CC[C@]3(C)[C@H]1C2`: the IC50 is less than 10 µM with MDA-MB-231, less than 10 µM in data set [1] and 0.01 µM in data set [4]. Moreover, the inhibition entry with JB6 Cl41 was “Active”. In data set [2], this compound gave an inhibition at 6.25 µM of 36.3%. Further, in data set [3], the Activity result was “Non-toxic”.
Compound `COc1c2c(c(C)c3c1C(=O)OC3)O[C@@]1(C)C[C@@H](O)[C@]34O[C@](O)(CC[C@]3(C)[C@H]1C2)OC4(C)C` displayed an IC50 in data set [4] of 250 µM.

The IC50 is the concentration that inhibits the measured activity by half. A low value points to greater potency in that assay. One may read the inhibition as how much of the control response was suppressed.
